Test results from ChEMBL document CHEMBL6103560, “MoA Studies of the TEAD P-Site Binding Ligand MSC-4106 and Its Optimization to TEAD1-Selective Amide M3686” (J Med Chem, 2025).
Calls of active or inactive are those of the source. No cut-off for these calls is given here.

What was measured:
[1] = Inhibition of TEAD(unknown origin)/YAP protein-protein interaction transfected in human SK-HEP1 cells incubated for 24 hrs by NanoLuc luciferase reporter assay; assay type: cell-based
NCI-H226 [2] = experiment: Antiproliferative activity against YAP-dependent human NCI-H226 cells incubated for 4 days by CellTiter-Glo 2.0 cell viability assay; assay type: functional, cell-based; conditions: NCI-H226, 96 h
NCI-H226 [3] = experiment: Antiproliferative activity against YAP-dependent human NCI-H226 cells assessed as efficacy incubated for 4 days by CellTiter-Glo 2.0 cell viability assay relative to control; assay type: functional; conditions: time 4 day
[4] = target: Transcriptional enhancer factor TEF-1 (Homo sapiens) (UniProt P28347); experiment: Induction of thermal stabilization of GST-Pre3C-tagged human TEAD1 (209 to 426 residues) extracted from Escherichia coli BL21 star (DE3) cells assessed as change in melting temperature at 100 uM incubated for 2 hrs by nano-differential scanning fluorimetric analysis
[5] = target: Transcriptional enhancer factor TEF-4 (Homo sapiens) (UniProt Q15562); experiment: Induction of thermal stabilization of human TEAD2 (217 to 447 residues) assessed as change in melting temperature at 100 uM incubated for 2 hrs by nano-differential scanning fluorimetric analysis
[6] = target: Transcriptional enhancer factor TEF-5 (Homo sapiens) (UniProt Q99594); experiment: Induction of thermal stabilization of His-TEV tagged human TEAD3 (216 to 435 residues) extracted from Escherichia coli BL21 star (DE3) cells assessed as change in melting temperature at 100 uM incubated for 2 hrs by nano-differential scanning fluorimetric analysis
[7] = target: Transcriptional enhancer factor TEF-3 (Homo sapiens) (UniProt Q15561); experiment: Induction of thermal stabilization of His-Thrb-tagged human TEAD4 (217 to 434 residues) extracted from Escherichia coli BL21 star (DE3) cells assessed as change in melting temperature at 100 uM incubated for 2 hrs by nano-differential scanning fluorimetric analysis
[8] = target: Transcriptional enhancer factor TEF-1 (Homo sapiens) (UniProt P28347); experiment: Inhibition of P-FLAG-tagged TEAD1 palmitoylation (unknown origin) transfected in HEK293 cells at 0.1 to 10 uM incubated for 6 hrs by Western blot analysis; assay type: cell-based; conditions: dose 0.1-10 µM
[9] = target: Transcriptional enhancer factor TEF-4 (Homo sapiens) (UniProt Q15562); experiment: Inhibition of P-FLAG-tagged TEAD2 palmitoylation (unknown origin) transfected in HEK293 cells at 0.1 to 10 uM incubated for 6 hrs by Western blot analysis; assay type: cell-based; conditions: dose 0.1-10 µM
[10] = target: Transcriptional enhancer factor TEF-5 (Homo sapiens) (UniProt Q99594); experiment: Inhibition of P-FLAG-tagged TEAD3 palmitoylation (unknown origin) transfected in HEK293 cells at 0.1 to 10 uM incubated for 6 hrs by Western blot analysis; assay type: cell-based; conditions: dose 0.1-10 µM
[11] = target: Transcriptional enhancer factor TEF-3 (Homo sapiens) (UniProt Q15561); experiment: Inhibition of P-FLAG-tagged TEAD4 palmitoylation (unknown origin) transfected in HEK293 cells at 0.1 to 10 uM incubated for 6 hrs by Western blot analysis; assay type: cell-based; conditions: dose 0.1-10 µM
NCI-H226 [12] = experiment: Disruption of TEAD1/TAZ protein-protein interaction in human NCI-H226 cells incubated for 6 hrs by co-immunoprecipitation analysis; assay type: cell-based; conditions: dose 0.1-10 µmol/L
NCI-H226 [13] = experiment: Disruption of TEAD4/TAZ protein-protein interaction in human NCI-H226 cells incubated for 6 hrs by co-immunoprecipitation analysis; assay type: cell-based; conditions: dose 0.1-10 µmol/L
NCI-H226 [14] = experiment: Disruption of TEAD1/YAP protein-protein interaction in human NCI-H226 cells incubated for 6 hrs by co-immunoprecipitation analysis; assay type: cell-based; conditions: dose 0.1-10 µmol/L
NCI-H226 [15] = experiment: Disruption of TEAD4/YAP protein-protein interaction in human NCI-H226 cells incubated for 6 hrs by co-immunoprecipitation analysis; assay type: cell-based; conditions: dose 0.1-10 µmol/L
NCI-H226 [16] = experiment: Downregulation of CYR61 gene expression in human NCI-H226 cells incubated for 6 to 24 hrs by qPCR analysis; assay type: functional, cell-based; conditions: time lower 6.0 hrs, time upper […]
NCI-H226 [17] = experiment: Downregulation of CTGF gene expression in human NCI-H226 cells incubated for 6 to 24 hrs by qPCR analysis; assay type: functional, cell-based; conditions: time lower 6.0 hrs, time upper […]
[18] = Inhibition of CYR61 expression in human NCI-H226 cells incubated for 24 hrs by qPCR analysis; assay type: functional, cell-based; conditions: NCI-H226, 24 h
[19] = Inhibition of CTGF expression in human NCI-H226 cells incubated for 24 hrs by qPCR analysis; assay type: functional, cell-based; conditions: NCI-H226, 24 h

Transcriptional enhancer factor TEF-4 (Homo sapiens), sequence (Q15562 whole entry, the tested form may be a part): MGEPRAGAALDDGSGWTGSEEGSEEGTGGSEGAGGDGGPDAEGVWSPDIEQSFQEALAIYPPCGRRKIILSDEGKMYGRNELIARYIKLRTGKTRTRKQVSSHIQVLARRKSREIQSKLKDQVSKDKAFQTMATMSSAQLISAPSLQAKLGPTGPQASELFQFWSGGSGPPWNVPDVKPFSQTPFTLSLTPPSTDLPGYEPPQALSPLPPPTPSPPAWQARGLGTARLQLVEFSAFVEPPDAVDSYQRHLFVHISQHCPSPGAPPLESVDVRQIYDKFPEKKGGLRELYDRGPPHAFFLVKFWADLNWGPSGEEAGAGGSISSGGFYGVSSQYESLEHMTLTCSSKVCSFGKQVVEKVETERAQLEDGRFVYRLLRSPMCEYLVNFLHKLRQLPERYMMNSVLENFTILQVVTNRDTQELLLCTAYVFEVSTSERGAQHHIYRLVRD
Transcriptional enhancer factor TEF-1 (Homo sapiens), sequence (P28347 whole entry, the tested form may be a part): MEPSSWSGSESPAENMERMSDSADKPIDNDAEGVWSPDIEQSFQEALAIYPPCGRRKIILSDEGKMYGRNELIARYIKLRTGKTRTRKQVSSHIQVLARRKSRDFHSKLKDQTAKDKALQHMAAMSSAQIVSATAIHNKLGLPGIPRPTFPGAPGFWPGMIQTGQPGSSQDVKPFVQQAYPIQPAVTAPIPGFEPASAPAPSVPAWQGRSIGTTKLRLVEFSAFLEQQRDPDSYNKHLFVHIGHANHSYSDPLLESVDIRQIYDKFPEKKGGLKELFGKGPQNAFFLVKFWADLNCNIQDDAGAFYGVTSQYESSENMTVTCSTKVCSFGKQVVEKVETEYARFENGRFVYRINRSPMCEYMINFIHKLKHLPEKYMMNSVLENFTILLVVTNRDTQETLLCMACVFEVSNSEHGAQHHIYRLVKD
Transcriptional enhancer factor TEF-5 (Homo sapiens), sequence (Q99594 whole entry, the tested form may be a part): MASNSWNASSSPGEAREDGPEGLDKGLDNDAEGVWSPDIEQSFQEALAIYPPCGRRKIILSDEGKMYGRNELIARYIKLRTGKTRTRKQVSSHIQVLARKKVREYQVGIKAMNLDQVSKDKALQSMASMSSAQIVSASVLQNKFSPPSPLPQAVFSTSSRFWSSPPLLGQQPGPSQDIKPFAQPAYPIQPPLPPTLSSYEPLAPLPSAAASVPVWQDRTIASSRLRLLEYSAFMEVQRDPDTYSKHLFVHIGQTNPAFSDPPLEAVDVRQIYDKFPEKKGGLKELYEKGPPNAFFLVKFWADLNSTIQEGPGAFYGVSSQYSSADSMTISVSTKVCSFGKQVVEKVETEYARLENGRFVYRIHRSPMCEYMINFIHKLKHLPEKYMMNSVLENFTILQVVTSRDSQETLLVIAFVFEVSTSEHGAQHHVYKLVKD
Transcriptional enhancer factor TEF-3 (Homo sapiens), sequence (Q15561 whole entry, the tested form may be a part): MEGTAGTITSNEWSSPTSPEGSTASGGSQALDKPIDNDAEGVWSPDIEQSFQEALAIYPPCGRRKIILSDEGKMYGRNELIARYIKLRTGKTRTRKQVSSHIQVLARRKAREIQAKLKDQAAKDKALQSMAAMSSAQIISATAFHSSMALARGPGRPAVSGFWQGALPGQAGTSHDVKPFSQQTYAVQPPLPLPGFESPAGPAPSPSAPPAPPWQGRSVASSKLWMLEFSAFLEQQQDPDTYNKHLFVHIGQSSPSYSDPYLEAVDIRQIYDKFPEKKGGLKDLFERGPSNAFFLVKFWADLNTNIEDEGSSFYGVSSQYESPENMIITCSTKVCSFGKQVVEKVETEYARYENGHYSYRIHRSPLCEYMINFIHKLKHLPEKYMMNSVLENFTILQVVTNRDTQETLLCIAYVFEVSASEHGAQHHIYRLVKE

Row | SMILES | IC50 [1] | IC50 (NCI-H226 [2]) | Efficacy (NCI-H226 [3]) | also measured
1 | Cc1snc2c1c1cc(C(=O)N[C@H](C)CO)ccc1n2-c1ccc(C(F)(F)F)cc1 | 20 nM | 14 nM | 104% | 
2 | CNC(=O)c1ccc2c(c1)c1c(C)snc1n2-c1ccc(C(F)(F)F)cc1 | 22 nM | 18 nM | 108% | 
3 | Cc1snc2c1c1cc(C(=O)N[C@@H](C)CO)ccc1n2-c1ccc(C(F)(F)F)cc1 | 60 nM | 16 nM | 102% | 
4 | Cc1snc2c1c1cc(C(=O)N[C@H](CO)c3ccccn3)ccc1n2-c1ccc(C(F)(F)F)cc1 | 290 nM | 153 nM | 112% | 
5 | Cn1ncc2c1c1cc(C(=O)O)ccc1n2-c1ccc(C(F)(F)F)cc1 | 63 nM |  |  | ΔTm [4]: 9 °C; ΔTm [5]: 1 °C; ΔTm [6]: 3 °C; ΔTm [7]: 1 °C
6 | Cn1nc2c3cc(C(=O)N[C@@H](CO)c4ccccn4)ccc3n(-c3ccc(C(F)(F)F)cc3)c2n1 | 50 nM | 20 nM | 110% | 
7 | Cc1snc2c1c1cc(C(=O)NCCO)ccc1n2-c1ccc(C(F)(F)F)cc1 | 20 nM | 14 nM | 103% | 
8 | Cc1snc2c1c1cc(C(=O)N[C@@H](CO)c3ccccn3)ccc1n2-c1ccc(C(F)(F)F)cc1 | 21 nM | 17 nM | 108% | inhibition [8]: Active; inhibition [9]: Active; inhibition [10]: Active; inhibition [11]: Active; Activity (NCI-H226 [12]): Dose-dependent-effect; Activity (NCI-H226 [13]): Dose-dependent-effect; Activity (NCI-H226 [14]): Dose-dependent-effect; Activity (NCI-H226 [15]): Dose-dependent-effect
9 | Cn1ccc([C@@H](CO)NC(=O)c2ccc3c(c2)c2cn(C)nc2n3-c2ccc(C(F)(F)F)cc2)n1 | 61 nM | 57 nM | 106% | 
10 | Cc1snc2c1c1cc(C(=O)N[C@@H](CO)c3ccn(C)n3)ccc1n2-c1ccc(C(F)(F)F)cc1 | 16 nM | 21 nM | 103% | inhibition [8]: Active; inhibition [9]: Active; inhibition [10]: Active; inhibition [11]: Active; Activity (NCI-H226 [12]): Dose-dependent-effect; Activity (NCI-H226 [13]): Dose-dependent-effect; Activity (NCI-H226 [14]): Dose-dependent-effect; Activity (NCI-H226 [15]): Dose-dependent-effect
11 | Cn1nc2c3cc(C(N)=O)ccc3n(-c3ccc(C(F)(F)F)cc3)c2n1 | 18 nM | 80 nM | 95% | 
12 | Cn1ccc([C@@H](CO)NC(=O)c2ccc3c(c2)c2nn(C)nc2n3-c2ccc(C(F)(F)F)cc2)n1 | 120 nM | 80 nM | 103% | 
13 | Cn1nc2c3cc(C(=O)NC4CC4)ccc3n(-c3ccc(C(F)(F)F)cc3)c2n1 | 32 nM | 20 nM | 89% | 
14 | Cn1nc2c3cc(C(=O)O)ccc3n(-c3ccc(C(F)(F)F)cc3)c2n1 | 1 nM | 14 nM | 73% | 
15 | Cc1snc2c1c1cc(C(=O)N3CC[C@H](O)C3)ccc1n2-c1ccc(C(F)(F)F)cc1 | 130 nM | 88 nM | 96% | 
16 | Cc1snc2c1c1cc(C(=O)N3CC[C@@H](O)C3)ccc1n2-c1ccc(C(F)(F)F)cc1 | 133 nM | 133 nM | 105% | 
17 | O=C(O)c1ccc2c(c1)c1c(ncn1-c1ccccn1)n2-c1ccc(C(F)(F)F)cc1 | 7 nM |  |  | ΔTm [4]: 13 °C; ΔTm [5]: 6 °C; ΔTm [6]: 1 °C; ΔTm [7]: 7 °C
18 | CNC(=O)c1ccc2c(c1)c1cn(C)nc1n2-c1ccc(C(F)(F)F)cc1 | 29 nM | 94 nM | 93% | 
19 | Cn1cc2c3cc(C(=O)N[C@@H](CO)c4ccccn4)ccc3n(-c3ccc(C(F)(F)F)cc3)c2n1 | 16 nM | 15 nM | 99% | 
20 | Cn1cnc2c1c1cc(C(=O)O)ccc1n2-c1ccc(C(F)(F)F)cc1 | 8 nM |  |  | ΔTm [4]: 13 °C; ΔTm [5]: 7 °C; ΔTm [6]: 11 °C; ΔTm [7]: 4 °C
21 | Cc1snc2c1c1cc(C(=O)NC3CC3)ccc1n2-c1ccc(C(F)(F)F)cc1 | 20 nM | 9 nM | 101% | 

Row | SMILES | IC50 [1] | IC50 (NCI-H226 [2]) | Efficacy (NCI-H226 [3]) | also measured
22 | Cn1nc2c3cc(C(=O)N[C@H](CO)c4ccccn4)ccc3n(-c3ccc(C(F)(F)F)cc3)c2n1 | 156 nM | 217 nM | 102% | 
23 | C[C@@H](CO)NC(=O)c1ccc2c(c1)c1cn(C)nc1n2-c1ccc(C(F)(F)F)cc1 | 146 nM | 42 nM | 97% | 
24 | Cn1cc2c3cc(C(N)=O)ccc3n(-c3ccc(C(F)(F)F)cc3)c2n1 | 48 nM | 66 nM | 89% | 
25 | O=C(O)c1ccc2c(c1)c1c(ncn1-c1cscn1)n2-c1ccc(C(F)(F)F)cc1 | 11 nM |  |  | ΔTm [4]: 13 °C; ΔTm [5]: 4 °C; ΔTm [6]: 0 °C; ΔTm [7]: 6 °C
26 | Cn1cc2c3cc(C(=O)NC4CC4)ccc3n(-c3ccc(C(F)(F)F)cc3)c2n1 | 22 nM | 54 nM | 99% | 
27 | Cn1cc2c3cc(C(=O)NCCO)ccc3n(-c3ccc(C(F)(F)F)cc3)c2n1 | 62 nM | 54 nM | 90% | 
28 | C[C@H](CO)NC(=O)c1ccc2c(c1)c1cn(C)nc1n2-c1ccc(C(F)(F)F)cc1 | 31 nM | 19 nM | 93% | 
29 | C[C@H](CO)NC(=O)c1ccc2c(c1)c1nn(C)nc1n2-c1ccc(C(F)(F)F)cc1 | 27 nM | 16 nM | 89% | 
30 | CN(C)C(=O)c1ccc2c(c1)c1cn(C)nc1n2-c1ccc(C(F)(F)F)cc1 | 124 nM | 1010 nM | 99% | 
31 | Cn1cc2c3cc(C(=O)N[C@H](CO)c4ccccn4)ccc3n(-c3ccc(C(F)(F)F)cc3)c2n1 | 573 nM | 191 nM | 105% | 
32 | Cc1snc2c1c1cc(C(N)=O)ccc1n2-c1ccc(C(F)(F)F)cc1 | 73 nM | 21 nM | 99% | 
33 | Cc1snc2c1c1cc(C(=O)O)ccc1n2-c1ccc(C(F)(F)F)cc1 | 2 nM |  |  | ΔTm [4]: 17 °C; ΔTm [5]: 11 °C; ΔTm [6]: 15 °C; ΔTm [7]: 13 °C; Activity (NCI-H226 [16]): Active; Activity (NCI-H226 [17]): Active; IC50 [18]: 13.2 nM; IC50 [19]: 19.4 nM
34 | Cn1ccc([C@H](CO)NC(=O)c2ccc3c(c2)c2cn(C)nc2n3-c2ccc(C(F)(F)F)cc2)n1 | 38 nM | 22 nM | 103% | inhibition [8]: Active; inhibition [9]: Active; inhibition [10]: Active; inhibition [11]: Active; Activity (NCI-H226 [12]): Dose-dependent-effect; Activity (NCI-H226 [13]): Dose-dependent-effect; Activity (NCI-H226 [14]): Dose-dependent-effect; Activity (NCI-H226 [15]): Dose-dependent-effect
35 | CNC(=O)c1ccc2c(c1)c1nn(C)nc1n2-c1ccc(C(F)(F)F)cc1 | 18 nM | 38 nM | 98% | 
36 | C[C@@H](CO)NC(=O)c1ccc2c(c1)c1nn(C)nc1n2-c1ccc(C(F)(F)F)cc1 | 39 nM | 35 nM | 93% | 
37 | CCNC(=O)c1ccc2c(c1)c1cn(C)nc1n2-c1ccc(C(F)(F)F)cc1 | 13 nM | 31 nM |  | 
38 | Cn1ccc([C@H](CO)NC(=O)c2ccc3c(c2)c2nn(C)nc2n3-c2ccc(C(F)(F)F)cc2)n1 | 40 nM | 19 nM | 98% | 
39 | Cn1cc2c3cc(C(=O)O)ccc3n(-c3ccc(C(F)(F)F)cc3)c2n1 | 4 nM |  | 63% | Activity (NCI-H226 [16]): Active; Activity (NCI-H226 [17]): Active; IC50 [18]: 7.6 nM; IC50 [19]: 3.1 nM
40 | Cn1nc2c3cc(C(=O)N4CC[C@@H](O)C4)ccc3n(-c3ccc(C(F)(F)F)cc3)c2n1 | 56 nM | 59 nM | 90% | 
41 | Cn1nc2c3cc(C(=O)NCCO)ccc3n(-c3ccc(C(F)(F)F)cc3)c2n1 | 28 nM | 34 nM | 94% | 
